Assay results from patent US7396856B2, “Benzopyran analogs and their use for the treatment of glaucoma” (Alcon, Inc., priority 2002, dated 2008).
Counter-ions that a name gives are not always drawn. Like-named read-outs stand apart in the source and are kept apart here.

Legend:
brain 5-HT2 receptors = brain 5-HT2 receptors (Rattus norvegicus, UniProt P14842); experiment: 5-HT2 receptor binding assay ([125I]DOI competition); conditions: [125I]DOI displacement, rat or human cerebral cortex homogenates
Chain of brain 5-HT2 receptors (P14842 whole entry): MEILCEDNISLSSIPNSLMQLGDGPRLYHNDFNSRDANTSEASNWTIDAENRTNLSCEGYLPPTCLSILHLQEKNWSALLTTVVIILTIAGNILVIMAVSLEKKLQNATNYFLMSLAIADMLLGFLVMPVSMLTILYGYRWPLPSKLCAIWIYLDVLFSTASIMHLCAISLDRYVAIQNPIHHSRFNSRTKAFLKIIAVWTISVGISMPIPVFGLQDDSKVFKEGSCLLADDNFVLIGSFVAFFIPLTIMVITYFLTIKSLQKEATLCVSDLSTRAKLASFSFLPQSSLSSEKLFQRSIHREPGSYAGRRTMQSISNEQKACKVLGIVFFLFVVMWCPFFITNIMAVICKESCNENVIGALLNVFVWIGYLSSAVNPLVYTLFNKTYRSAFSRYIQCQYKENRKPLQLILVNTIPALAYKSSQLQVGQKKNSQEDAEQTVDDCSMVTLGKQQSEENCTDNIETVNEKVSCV
Experimental: 5-HT2 Receptor Binding Assay
The assay mixture is incubated for 1 hour at 23° C. in polypropylene tubes and the assays terminated by rapid vacuum filtration over Whatman GF/B glass fiber filters previously soaked in 0.3% polyethyleneimine using ice-cold buffer. Test compounds (at different concentrations) are substituted for methiothepin. Filter-bound radioactivity is determined by scintillation spectrometry on a beta counter. The data are analyzed using a non-linear, iterative curve-fitting computer program [Trends Pharmacol. Sci., 16, 413 (1995)] to determine the compound affinity parameter. The concentration of the compound needed to inhibit the [^125I]DOI binding by 50% of the maximum is termed the IC50 or Ki value.

5-HT2 receptor = molecular target: T1, 5-HT2 receptor (Rattus norvegicus, UniProt P14842); experiment: 5-HT2 functional assay: [Ca2+]i mobilization (FLIPR) in A7r5 cells; format: cell-based; conditions: for Efficacy (Emax, %) / Emax: percentage of maximum 5-HT-induced response; for EC50: A7r5 rat vascular smooth muscle cells, FLIPR; for Emax: read-out: Efficacy (Emax, %)
T1 construct: endogenous in cells; host or cells: A7r5 rat vascular smooth muscle cells
T1 sequence (P14842 whole entry): as above
Experimental: 5-HT2 Functional Assay: [Ca^2+]i Mobilization
The receptor-mediated mobilization on intracellular calcium ([Ca^2+]i) was studied using the Fluorescence Imaging Plate Reader (FLIPR) instrument. Rat vascular smooth muscle cells, A7r5, were grown in a normal media of […] and 10 μg/mL gentamycin. Confluent cell monolayers were trypsinized, pelleted, and re-suspended in normal media. Cells were seeded in a 50 μL volume at a density of 20,000 cells/well in a black wall, 96-well tissue culture plate and grown for 2 days.
On the day of the experiment, one vial of FLIPR Calcium Assay Kit dye was re-suspended in 50 mL of a FLIPR buffer consisting of Hank's Balanced Salt Solution (HBSS), 20 mM HEPES, and 2.5 mM probenecid, pH 7.4. Cells were loaded with the calcium-sensitive dye by addition of an equal volume ([…]) to each well of the 96-well plate and incubated with dye for 1 h at 23° C.
Compounds were diluted 1:50 in […]. For “hit” screening, compounds were further diluted 1:10 in FLIPR buffer and tested at a final concentration of 10 μM.
The compound plate and cell plate were placed in the FLIPR instrument. At the beginning of an experimental run, a signal test was performed to check the basal fluorescence signal from the dye-loaded cells and the uniformity of the signal across the plate. The basal fluorescence was adjusted between 8000-12000 counts by modifying the exposure time, the camera F-stop, or the laser power. Instrument settings for a typical assay were the following: laser power 0.3-0.6 W, camera F-stop F/2, and exposure time 0.4 sec. An aliquot (25 μL) of the test compound was added to the existing 100 μL dye-loaded cells at a dispensing speed of 50 μL/sec. Fluorescence data were collected in real-time at 1.0 sec intervals for the first 60 secs and at 6.0 sec intervals for an additional 120 secs.

[1] = tested on: intraocular pressure (IOP); experiment: Acute IOP response in lasered (hypertensive) eyes of conscious cynomolgus monkeys; format: in vivo; conditions: lasered monkey eye
Experimental: Acute IOP Response in Lasered (Hypertensive) Eyes of Conscious Cynomolgus Monkeys
Intraocular pressure (IOP) can be determined with an Alcon Pneumatonometer after light corneal anesthesia with 0.1% proparacaine. Eyes are washed with saline after each measurement. After a baseline IOP measurement, test compound is instilled in one 30 μL aliquot to the right eyes only of nine cynomolgus monkeys. Vehicle is instilled in the right eyes of six additional animals. Subsequent IOP measurements are taken at 1, 3, and 6 hours.

[2] = EC50, nM (5-HT2 functional, [Ca2+]i mobilization)
[3] = 1 hour after single topical ocular instillation of 300 μg
[4] = 3 hours after single topical ocular instillation of 300 μg
[5] = 6 hours after single topical ocular instillation of 300 μg

COc1cc(CC(C)N)c(OC)cc1I (stereo not drawn) [DOI, reference compound]
IC50 (brain 5-HT2 receptors): 0.33 nM | Efficacy (Emax, %) (5-HT2 receptor; A7r5 cells): 31% | EC50 (5-HT2 receptor; read-out: EC50, nM (5-HT2 functional, [Ca2+]i mobilization)): 30.2 nM

COc1cc(CC(C)N)c(OC)c2c1CCOC2 (racemic) [Compound A, 2-(5,8-Dimethoxy-isochroman-7-yl)-1-methyl-ethylamine hydrochloride]
Emax (5-HT2 receptor; A7r5 cells): 55% | EC50 (5-HT2 receptor; [2]): 267 nM

COc1cc(CC(C)N)c(OC)c2c1CCOC2.Cl (single isomer, unassigned; (-)) [Compound B, (−) 2-(5,8-Dimethoxy-isochroman-7-yl)-1-methyl-ethylamine hydrochloride]
Emax (5-HT2 receptor; A7R5, A7r5 cells): 55% | EC50 (5-HT2 receptor; [2]): 39 nM | IOP lowering (%) [1, 3]: 15.8% | IOP lowering (mmHg) [1, 3]: 6.8 mmHg | IOP lowering (%) [1, 4]: 28.5% | IOP lowering (mmHg) [1, 4]: 12.5 mmHg | IOP lowering (%) [1, 5]: 21.3% | IOP lowering (mmHg) [1, 5]: 9.6 mmHg

COc1cc(CC(C)N)c(OC)c2c1CCOC2.Cl (single isomer, unassigned; (+)) [Compound C, (+) 2-(5,8-Dimethoxy-isochroman-7-yl)-1-methyl-ethylamine hydrochloride]
Efficacy (Emax, %) (5-HT2 receptor; A7r5 cells, hydrochloride): 69% | EC50 (5-HT2 receptor; [2]): 43 nM
